Paper PMC5947742 (The Journal of Dermatology, 2018)

Experiments:
[1] = Plasma pharmacokinetics of dabrafenib, its metabolites and trametinib; type: in vivo, Japanese patients; settings: for time by which plasma (trough) concentrations seemed to reach steady state: repeat dosing of 150 mg dabrafenib b.i.d. and 2 mg trametinib q.d.; for plasma AUC at repeat dosing (day 21) compared with single dose (day 1): AUC0-12 h for dabrafenib, AUC0-24 h for trametinib
Safety and tolerability = type: in vivo, Japanese patients

CC(C)c1nc(-c2cccc(NS(=O)(=O)c3c(F)cccc3F)c2F)c(-c2ccnc(N)n2)s1 [GSK2167542]
time by which plasma (trough) concentrations seemed to reach steady state [1]: ≤ 3 week

CC(C)(CO)c1nc(-c2cccc(NS(=O)(=O)c3c(F)cccc3F)c2F)c(-c2ccnc(N)n2)s1 [GSK2285403]
time by which plasma (trough) concentrations seemed to reach steady state [1]: ≤ 3 week

CC(C)(C)c1nc(-c2cccc(NS(=O)(=O)c3c(F)cccc3F)c2F)c(-c2ccnc(N)n2)s1 [Dabrafenib, dabrafenib]
plasma AUC at repeat dosing (day 21) compared with single dose (day 1) [1]: lower
time by which plasma (trough) concentrations seemed to reach steady state [1]: ≤ 3 week
adverse event leading to discontinuation (Safety and tolerability; patient 1, phase 1): grade 3 increased blood alkaline phosphatase
adverse event leading to discontinuation (Safety and tolerability; patient 11, phase 2): grade 3 uveitis

CC(=O)Nc1cccc(-n2c(=O)n(C3CC3)c(=O)c3c(Nc4ccc(I)cc4F)n(C)c(=O)c(C)c32)c1 [Trametinib, trametinib]
plasma AUC at repeat dosing (day 21) compared with single dose (day 1) [1]: higher
time by which plasma (trough) concentrations seemed to reach steady state [1]: ≤ 3 week
half-life relative to the dose interval (24 h) ([1]; trametinib 2 mg q.d.): approximately 3.5 times the dose interval
adverse event leading to discontinuation (Safety and tolerability; patient 11, phase 2): grade 3 uveitis

CC(C)(C(=O)O)c1nc(-c2cccc(NS(=O)(=O)c3c(F)cccc3F)c2F)c(-c2ccnc(N)n2)s1 [GSK2298683]
time by which plasma (trough) concentrations seemed to reach steady state [1]: ≤ 3 week
